{"source": "patent US20040058914A1", "about": "“Combination drugs” (priority 2000, published 2004)", "key": {"[1]": {"test_system": "cyclophosphamide-induced pollakiuria rats", "assay": "bladder capacity of cyclophosphamide-induced pollakiuria rats under urethane anesthesia (Experimental Example 1, NK-1 + NK-2 antagonist)", "type": "in vivo", "settings": "for bladder capacity Before administration: cyclophosphamide 200 mg/kg i.p. the day before, baseline before i.v. drug; for bladder capacity Before administration / bladder capacity (%) increase / bladder capacity After administration: Compound No. 3 0.3 mg/kg, SR48968 10 mg/kg, mean ± standard error of 5-7 animals; for bladder capacity (%) increase / bladder capacity After administration: cyclophosphamide 200 mg/kg i.p., 10 min. after i.v. administration; for effect on bladder capacity (in words): cyclophosphamide-treated animals, i.v., sole vs combined administration at the doses of Table 1", "procedure": "The effect afforded by the combined use of compound No. 3 and (±)SR48968 hydrochloride on the suppressive action on pollakiuria and urinary incontinence was shown by the ability to increase bladder capacity of cyclophosphamide-induced pollakiuria rats under a urethane anesthesia. Cyclophosphamide (200 mg/kg) or a solvent was intraperitoneally administered and the rats were subjected to the bladder capacity test the next day. […] The changes in the bladder capacity at 10 min. after administration were measured.\nThe data are expressed in mean±standard error."}, "[2]": {"test_system": "cyclophosphamide-induced pollakiuria rats", "assay": "bladder capacity of cyclophosphamide-induced pollakiuria rats under urethane anesthesia (Experimental Example 2, NK-1 antagonist + anti-cholinergic drug)", "settings": "for bladder capacity Before administration: cyclophosphamide 200 mg/kg i.p. the day before, baseline before i.v. drug; for bladder capacity Before administration / bladder capacity (%) increase / bladder capacity After administration: Compound No. 3 0.3 mg/kg, oxybutynin chloride 1 mg/kg, mean ± standard error of 5-7 animals; for bladder capacity (%) increase / bladder capacity After administration: cyclophosphamide 200 mg/kg i.p., 10 min. after i.v. administration; for effect on bladder capacity (in words): cyclophosphamide-treated animals, i.v., sole vs combined administration at the doses of Table 2"}}, "data": [{"smiles": "Cc1ccc(-c2c3n(c(=O)c4ncccc24)CC[C@@H](C)CN(Cc2cc(C(F)(F)F)cc(C(F)(F)F)c2)C3=O)cc1", "note": "[Compound No. 3, (9R)-7-[3,5-bis(trifluoromethyl)benzyl]-6,7,8,9,10,11-hexahydro-9-methyl-5-(4-methylphenyl)-6,13-dioxo-13H-[1,4]diazocino[2,1-g][1,7]naphthyridine]", "values": [{"measurement": "bladder capacity Before administration", "setting": "[1]", "value": "1.06 ± 0.14", "unit": "mL"}, {"measurement": "bladder capacity (%) increase", "setting": "[1]", "value": "−0.28 ± 5.3", "unit": "%"}, {"measurement": "bladder capacity After administration", "setting": "[1]", "value": "1.05 ± 0.14", "unit": "mL"}, {"measurement": "effect on bladder capacity (in words)", "setting": "[1]", "value": "does not increase the bladder capacity"}, {"measurement": "bladder capacity Before administration", "setting": "[2]", "value": "0.66 ± 0.08", "unit": "mL"}, {"measurement": "bladder capacity (%) increase", "setting": "[2]", "value": "28.6 ± 12.4", "unit": "%"}, {"measurement": "bladder capacity After administration", "setting": "[2]", "value": "0.80 ± 0.09", "unit": "mL"}, {"measurement": "effect on bladder capacity (in words)", "setting": "[2]", "value": "does not increase the bladder capacity"}]}, {"smiles": "CC(=O)NC1(c2ccccc2)CCN(CC[C@H](CN(C)C(=O)c2ccccc2)c2ccc(Cl)c(Cl)c2)CC1", "note": "(racemic) [SR48968]", "values": [{"measurement": "bladder capacity Before administration", "setting": "[1]", "value": "0.99 ± 0.08", "unit": "mL"}, {"measurement": "bladder capacity (%) increase", "setting": "[1]", "value": "3.8 ± 3.3", "unit": "%"}, {"measurement": "bladder capacity After administration", "setting": "[1]", "value": "1.03 ± 0.09", "unit": "mL"}, {"measurement": "effect on bladder capacity (in words)", "setting": "[1]", "value": "does not increase the bladder capacity"}]}, {"smiles": "CCN(CC)CC#CCOC(=O)C(O)(c1ccccc1)C1CCCCC1", "note": "(stereo not shown) [oxybutynin chloride]", "values": [{"measurement": "bladder capacity Before administration", "setting": "[2]", "value": "0.76 ± 0.13", "unit": "mL"}, {"measurement": "bladder capacity (%) increase", "setting": "[2]", "value": "6.9 ± 12.4", "unit": "%"}, {"measurement": "bladder capacity After administration", "setting": "[2]", "value": "0.78 ± 0.12", "unit": "mL"}, {"measurement": "effect on bladder capacity (in words)", "setting": "[2]", "value": "does not increase the bladder capacity"}]}]}
